{"source": "patent US20140350273A1", "about": "“PEDIATRIC USES OF CABAZITAXEL” (AVENTIS PHARMA S.A., priority 2012, published 2014)", "test_system": "human rhabdomyosarcoma RH-30", "type": "in vivo", "settings": "for Average body weight change in % per mouse at nadir / Drug death (Day of death) / Regressions Complete / Regressions Partial / Tumor free survivors at day 120 / day of nadir / ΔT/ΔC in % (day 27) / Biological interpretation: 18", "description": "This efficacy may be quantified, for example, as changes in tumor volume for each treated (T) and control (C) group, which are calculated for each animal and each day by subtracting the tumor volume on the day of first treatment (staging day) from the tumor volume on the specified observation day. This allows calculating the tumor growth inhibition: ΔT/ΔC=(median delta T/median delta C)×100. Individual tumor volume changes from baseline are thereafter analyzed by a non-parametric two-way ANOVA-TYPE (with factors: group and repeated days) followed by a post-hoc contrasts analysis, with Bonferroni-Holm adjustment for multiplicity, comparing all treated groups to the control group. […] A probability less than 5% (p<0.05) was considered as significant.\nBased on the National Cancer Institute (NCl) standards, a ΔT/ΔC≦40% is the minimal level required to declare activity.\nThe tumor doubling time (in days; Td) was estimated from the plot of the log linear growth of the control group tumors in exponential growth (100 to 1000 mm^3 range) [T. H. Corbett et al., Cancer, 40: 2660-2680 (1977); F. M. Schabel et al., Cancer Drug Development, Part B, Methods in Cancer Research, 17: 3-51, New York, Academic Press Inc. (1979)].\nThis efficacy may also be quantified by the number of tumor regressions observed after therapy. Individual mice reporting a tumor volume ≦50% of the Day 0 measurement for two consecutive measurements over a seven day period were considered partial responders (PR). Individual mice lacking palpable tumors (<4×4 mm^2 for two consecutive measurements over a seven day period) were classified as complete responders (CR); a CR that persisted until study completion was considered a tumor-free survivor (TFS).\nThe animals subjected to the experiment are subcutaneously grafted unilaterally with approximately 30 mg of a tumor fragment on day 0. The animals are implanted with a human tumor xenografted in immunocompromized mice. Several days post tumor implantation, mice are randomized according to their body weight to the different groups of treatments and controls. The animals are observed every day. […] The groups are then weighed once or twice a week until the end of the trial.\nThe tumors are measured 1 to 5 times a week, depending on the tumor doubling time, until the tumor reaches approximately 1,000 mm^3, or until the animal dies (if this occurs before the tumor reaches 1,000 mm^3). The animals are necropsied immediately after euthanasia or death.\nThe selected tumor model was a human rhabdomyosarcoma RH-30, xenografted in SCID mice [Douglass E C, et al. Cytogenet Cell Genet. 1987; 45(3-4):14855.].\nTreatment solutions were prepared first by mixing 1 volume of ethanolic stock solution and 1 volume of polysorbate 80, then by adding 18 volumes of glucose 5% in water.", "key": {"[1]": {"settings": "3.5 mg/kg per injection (total 7.0) IV days 14"}, "[2]": {"settings": "5.6 mg/kg per injection (total 11.2) IV days 14"}, "[3]": {"settings": "5.6 mg/kg per injection (total 11.2) IV days 14, listed as CABAZITAXEL"}, "[4]": {"settings": "9.0 mg/kg per injection (total 18) IV days 14"}, "[5]": {"settings": "14.5 mg/kg per injection (total 29) IV days 14"}, "[6]": {"settings": "14.5 mg/kg per injection (total 29) IV days 14, listed as CABAZITAXEL"}}, "note": "Read-outs that look alike come from different tables or passages of the source."}
{"compound": "CO[C@H]1C(=O)[C@]2(C)[C@@H](OC)C[C@H]3OC[C@@]3(OC(C)=O)[C@H]2[C@H](OC(=O)c2ccccc2)[C@]2(O)C[C@H](OC(=O)[C@H](O)[C@@H](NC(=O)OC(C)(C)C)c3ccccc3)C(C)=C1C2(C)C", "note": "[Cabazitaxel, 4α-acetoxy-2α-benzoyloxy-5β,20-epoxy-1β-hydroxy-7β,10β-dimethoxy-9-oxo-11-taxen-13α-yl (2R,3S)-3-tert-butoxycarbonyl-amino-2-hydroxy-3-phenylpropionate]", "values": [{"measurement": "Average body weight change in % per mouse at nadir", "setting": "[1]", "value": "−10.1", "unit": "%"}, {"measurement": "Drug death (Day of death)", "setting": "[1]", "value": "0/6"}, {"measurement": "Regressions Complete", "setting": "[1]", "value": "0/6"}, {"measurement": "Regressions Partial", "setting": "[1]", "value": "0/6"}, {"measurement": "Tumor free survivors at day 120", "setting": "[1]", "value": "0/6"}, {"measurement": "day of nadir", "setting": "[1]", "value": "(24) day"}, {"measurement": "ΔT/ΔC in % (day 27)", "setting": "[1]", "value": 24, "unit": "%"}, {"measurement": "Biological interpretation", "setting": "3.5 mg/kg per injection (total 7.0) IV days 14, listed as CABAZITAXEL", "value": "Active"}, {"measurement": "Biological interpretation", "setting": "3.5 mg/kg per injection (total 7.0) IV days 14, listed as cabazitaxel", "value": "active"}, {"measurement": "Tumor volume changes from baseline: Median (nMad)", "setting": "3.5 mg/kg, day 18", "value": "307 (35.6)"}, {"measurement": "Tumor volume changes from baseline: Median (nMad)", "setting": "3.5 mg/kg, day 22", "value": "418 (258)"}, {"measurement": "Tumor volume changes from baseline: Median (nMad)", "setting": "3.5 mg/kg, day 29", "value": 356.5}, {"measurement": "Average body weight change in % per mouse at nadir", "setting": "[2]", "value": "−15.3", "unit": "%"}, {"measurement": "Drug death (Day of death)", "setting": "[2]", "value": "0/6"}, {"measurement": "Regressions Complete", "setting": "[2]", "value": "2/6"}, {"measurement": "Regressions Partial", "setting": "[2]", "value": "5/6"}, {"measurement": "Tumor free survivors at day 120", "setting": "[2]", "value": "0/6"}, {"measurement": "day of nadir", "setting": "[2]", "value": "(28) day"}, {"measurement": "Biological interpretation", "setting": "[3]", "value": "Highly"}, {"measurement": "ΔT/ΔC in % (day 27)", "setting": "[3]", "value": 0, "unit": "%"}, {"measurement": "Biological interpretation", "setting": "5.6 mg/kg per injection (total 11.2) IV days 14, listed as cabazitaxel", "value": "highly active"}, {"measurement": "Tumor volume changes from baseline: Median (nMad)", "setting": "5.6 mg/kg, day 18", "value": "164 (30.4)"}, {"measurement": "Tumor volume changes from baseline: Median (nMad)", "setting": "5.6 mg/kg, day 19", "value": "203 (80.1)"}, {"measurement": "Tumor volume changes from baseline: Median (nMad)", "setting": "5.6 mg/kg, day 20", "value": 302.5}, {"measurement": "Tumor volume changes from baseline: Median (nMad)", "setting": "5.6 mg/kg, day 22", "value": 192.5}, {"measurement": "Tumor volume changes from baseline: Median (nMad)", "setting": "5.6 mg/kg, day 27", "value": "0 (130.5)"}, {"measurement": "Tumor volume changes from baseline: Median (nMad)", "setting": "5.6 mg/kg, day 29", "value": "106 (147.5)"}, {"measurement": "Tumor volume changes from baseline: Median (nMad)", "setting": "5.6 mg/kg, day 33", "value": "−85 (117.1)"}, {"measurement": "Tumor volume changes from baseline: Median (nMad)", "setting": "5.6 mg/kg, day 39", "value": "−139 (113.4)"}, {"measurement": "Tumor volume changes from baseline: Median (nMad)", "setting": "5.6 mg/kg, day 41", "value": "−157 (113.4)"}, {"measurement": "Tumor volume changes from baseline: Median (nMad)", "setting": "5.6 mg/kg, day 43", "value": "−104.5"}, {"measurement": "Tumor volume changes from baseline: Median (nMad)", "setting": "5.6 mg/kg, day 35", "value": "−120 (98.6)"}, {"measurement": "Average body weight change in % per mouse at nadir", "setting": "[4]", "value": "−8.0", "unit": "%"}, {"measurement": "Biological interpretation", "setting": "[4]", "value": "very active"}, {"measurement": "Drug death (Day of death)", "setting": "[4]", "value": "0/6"}, {"measurement": "Regressions Complete", "setting": "[4]", "value": "6/6"}, {"measurement": "Regressions Partial", "setting": "[4]", "value": "6/6"}, {"measurement": "Tumor free survivors at day 120", "setting": "[4]", "value": "5/6"}, {"measurement": "day of nadir", "setting": "[4]", "value": "(25) day"}, {"measurement": "ΔT/ΔC in % (day 27)", "setting": "[4]", "value": 7, "unit": "%"}, {"measurement": "Biological interpretation", "setting": "9.0 mg/kg per injection (total 18) IV days 14, listed as CABAZITAXEL", "value": "Very"}, {"measurement": "Tumor volume changes from baseline: Median (nMad)", "setting": "9 mg/kg, day 18", "value": 138.5}, {"measurement": "Tumor volume changes from baseline: Median (nMad)", "setting": "9 mg/kg, day 29", "value": "62.5 (91.9)"}, {"measurement": "Tumor volume changes from baseline: Median (nMad)", "setting": "9 mg/kg, day 33", "value": "−129 (142.3)"}, {"measurement": "Tumor volume changes from baseline: Median (nMad)", "setting": "9 mg/kg, day 39", "value": "−189.5"}, {"measurement": "Tumor volume changes from baseline: Median (nMad)", "setting": "9 mg/kg, day 41", "value": "−189.5"}, {"measurement": "Tumor volume changes from baseline: Median (nMad)", "setting": "9 mg/kg, day 43", "value": "−189.5"}, {"measurement": "Tumor volume changes from baseline: Median (nMad)", "setting": "9 mg/kg, day 35", "value": "−180 (94.9)"}, {"measurement": "Average body weight change in % per mouse at nadir", "setting": "[5]", "value": "−15.0", "unit": "%"}, {"measurement": "Drug death (Day of death)", "setting": "[5]", "value": "0/6"}, {"measurement": "Regressions Complete", "setting": "[5]", "value": "6/6"}, {"measurement": "Regressions Partial", "setting": "[5]", "value": "6/6"}, {"measurement": "Tumor free survivors at day 120", "setting": "[5]", "value": "6/6"}, {"measurement": "day of nadir", "setting": "[5]", "value": "(24) day"}, {"measurement": "Biological interpretation", "setting": "[6]", "value": "Highly"}, {"measurement": "ΔT/ΔC in % (day 27)", "setting": "[6]", "value": "<0", "unit": "%"}, {"measurement": "Biological interpretation", "setting": "14.5 mg/kg per injection (total 29) IV days 14, listed as cabazitaxel", "value": "highly active"}, {"measurement": "Tumor volume changes from baseline: Median (nMad)", "setting": "14.5 mg/kg, day 29", "value": "−107 (150.5)"}, {"measurement": "Tumor volume changes from baseline: Median (nMad)", "setting": "14.5 mg/kg, day 33", "value": "−180 (66)"}, {"measurement": "Tumor volume changes from baseline: Median (nMad)", "setting": "14.5 mg/kg, day 46", "value": "−194 (74.1)"}, {"measurement": "Tumor volume changes from baseline: Median (nMad)", "setting": "14.5 mg/kg, day 50", "value": "−194 (74.1)"}, {"measurement": "Tumor volume changes from baseline: Median (nMad)", "setting": "14.5 mg/kg, day 35", "value": "−194 (74.1)"}, {"measurement": "Tumor volume changes from baseline: Median (nMad)", "setting": "14.5 mg/kg, day 39", "value": "−194 (74.1)"}, {"measurement": "Tumor volume changes from baseline: Median (nMad)", "setting": "14.5 mg/kg, day 41", "value": "−194 (74.1)"}, {"measurement": "Tumor volume changes from baseline: Median (nMad)", "setting": "14.5 mg/kg, day 43", "value": "−194 (74.1)"}, {"measurement": "antitumor activity compared with docetaxel", "setting": "conclusion of example 1", "value": "more active than docetaxel"}]}
